Experimental data published in PubChem BioAssay (NCI).
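Briefly, cells in 96-well plates were exposed to five compound concentrations for 48 h, and endpoints were estimated by linear interpolation. TGI marks complete inhibition of growth.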

How the values were obtained:
Experiment in all cases: NCI anticancer screen, dose series, 48 h
SN12C renal = system: SN12C renal
KM20L2 colon = system: KM20L2 colon
A549 NSCLC = system: A549 NSCLC
SW-620 colon = system: SW-620 colon
OVCAR-4 ovarian = system: OVCAR-4 ovarian
TK-10 renal = system: TK-10 renal
SF-268 CNS = system: SF-268 CNS
HCT-15 colon = system: HCT-15 colon
NCI-H460 lung = system: NCI-H460 lung
OVCAR-3 ovarian = system: OVCAR-3 ovarian
COLO 205 colon = system: COLO 205 colon
HL-60(TB) leukemia = system: HL-60(TB) leukemia
HCC-2998 colon = system: HCC-2998 colon
EKVX NSCLC = system: EKVX NSCLC
NCI-H522 lung = system: NCI-H522 lung
786-0 renal = system: 786-0 renal
SNB-19 CNS = system: SNB-19 CNS
LXFL 529 NSCLC = system: LXFL 529 NSCLC
KM12 colon = system: KM12 colon
A498 renal = system: A498 renal
SR leukemia = system: SR leukemia
DLD-1 colon = system: DLD-1 colon
UO-31 renal = system: UO-31 renal
UACC-257 melanoma = system: UACC-257 melanoma
UACC-62 melanoma = system: UACC-62 melanoma
U251 CNS = system: U251 CNS
HT29 colon = system: HT29 colon
ACHN renal = system: ACHN renal
OVCAR-5 ovarian = system: OVCAR-5 ovarian
DMS 114 small cell lung = system: DMS 114 small cell lung
NCI-H23 lung = system: NCI-H23 lung
RXF 393 renal = system: RXF 393 renal
MOLT-4 leukemia = system: MOLT-4 leukemia
HOP-62 NSCLC = system: HOP-62 NSCLC
SNB-78 CNS = system: SNB-78 CNS
OVCAR-8 ovarian = system: OVCAR-8 ovarian
HCT-116 colon = system: HCT-116 colon
M19-MEL melanoma = system: M19-MEL melanoma
NCI-H226 lung = system: NCI-H226 lung
SNB-75 CNS = system: SNB-75 CNS
SK-MEL-2 melanoma = system: SK-MEL-2 melanoma
SK-OV-3 ovarian = system: SK-OV-3 ovarian
DMS 273 small cell lung = system: DMS 273 small cell lung
MALME-3M melanoma = system: MALME-3M melanoma
CCRF-CEM leukemia = system: CCRF-CEM leukemia
M14 melanoma = system: M14 melanoma
SF-295 CNS = system: SF-295 CNS
K-562 leukemia = system: K-562 leukemia
SF-539 CNS = system: SF-539 CNS
RPMI-8226 leukemia = system: RPMI-8226 leukemia
RXF-631 renal = system: RXF-631 renal
SK-MEL-28 melanoma = system: SK-MEL-28 melanoma
IGROV1 ovarian = system: IGROV1 ovarian

Measured: TGI

O=C(CC1(O)C(=O)Nc2ccc([N+](=O)[O-])cc21)c1ccc2ccccc2c1 (stereo not drawn)
> 100 µM: all assays above
